In this experiment the test system is MV-4-11 cells. The experiment is described as follows: Gene expression microarray analysis (Affymetrix PrimeView) and GSEA. Set-up: RFU PODN (11730768_x_at) / Fold change /veh PODN (11730768_x_at) / RFU LINC00158 (11744669_a_at) / Fold change /veh LINC00158 (11744669_a_at) / RFU DUSP10 (11751237_a_at) / Fold change /veh DUSP10 (11751237_a_at) / RFU ID3 (11757404_x_at) / Fold change /veh ID3 (11757404_x_at) / RFU PLEKHG5 (11737974_s_at) / Fold change /veh PLEKHG5 (11737974_s_at) / RFU LRRC4B (11730491_at) / Fold change /veh LRRC4B (11730491_at) / RFU GIMAP4 (11747438_a_at) / Fold change /veh GIMAP4 (11747438_a_at) / RFU KRT8 (11758183_x_at) / Fold change /veh KRT8 (11758183_x_at) / RFU CNN1 (11734310_a_at) / Fold change /veh CNN1 (11734310_a_at) / RFU VPS37D (11726825_at) / Fold change /veh VPS37D (11726825_at) / RFU C10orf10 (11716522_x_at) / Fold change /veh C10orf10 (11716522_x_at) / RFU KIR2DL2 /// KIR2DL4 /// KIR2DL5A /// KIR2DL5B /// KIR2DS1 /// KIR2DS2 /// KIR2DS3 /// KIR2DS4 /// KIR3DL3 /// KIR3DL3 /// KIR3DS1 (11738374_at) / Fold change /veh KIR2DL2 /// KIR2DL4 /// KIR2DL5A /// KIR2DL5B /// KIR2DS1 /// KIR2DS2 /// KIR2DS3 /// KIR2DS4 /// KIR3DL3 /// KIR3DL3 /// KIR3DS1 (11738374_at) / RFU C1QL1 (11718748_at) / Fold change /veh C1QL1 (11718748_at) / RFU TMPRSS4 (11747572_a_at) / Fold change /veh TMPRSS4 (11747572_a_at) / RFU HAMP (11756126_x_at) / Fold change /veh HAMP (11756126_x_at) / RFU RNFT2 (11725882_a_at) / Fold change /veh RNFT2 (11725882_a_at) / RFU NR4A2 (11747474_a_at) / Fold change /veh NR4A2 (11747474_a_at) / RFU ABCC12 (11746883_a_at) / Fold change /veh ABCC12 (11746883_a_at) / RFU TMEM136 (11760407_x_at) / Fold change /veh TMEM136 (11760407_x_at) / RFU CLDN22 /// WWC2 (11732394_at) / Fold change /veh CLDN22 /// WWC2 (11732394_at) / RFU HLA-DPB1 (11760878_x_at) / Fold change /veh HLA-DPB1 (11760878_x_at) / RFU SPINT1 (11716480_a_at) / Fold change /veh SPINT1 (11716480_a_at) / RFU GAP43 (11754022_s_at) / Fold change /veh GAP43 (11754022_s_at) / RFU A4GNT (11735810_at) / Fold change /veh A4GNT (11735810_at) / RFU PRB3 (11715151_x_at) / Fold change /veh PRB3 (11715151_x_at) / RFU TUBB4B (11761932_at) / Fold change /veh TUBB4B (11761932_at) / RFU CAPN14 (11732068_a_at) / Fold change /veh CAPN14 (11732068_a_at) / RFU TMCC2 (11721928_a_at) / Fold change /veh TMCC2 (11721928_a_at) / RFU IRGQ (11745062_a_at) / Fold change /veh IRGQ (11745062_a_at) / RFU FAM174B (11720279_a_at) / Fold change /veh FAM174B (11720279_a_at) / RFU TMPRSS4 (11748680_a_at) / Fold change /veh TMPRSS4 (11748680_a_at) / RFU FAM212B (11763350_a_at) / Fold change /veh FAM212B (11763350_a_at) / RFU PLEKHG5 (11743358_a_at) / Fold change /veh PLEKHG5 (11743358_a_at) / RFU ZSCAN30 (11745921_a_at) / Fold change /veh ZSCAN30 (11745921_a_at) / RFU CMKLR1 (11741424_a_at) / Fold change /veh CMKLR1 (11741424_a_at) / RFU LOC101060620 /// MAPK8IP1 (11723275_at) / Fold change /veh LOC101060620 /// MAPK8IP1 (11723275_at) / RFU SPTSSB (11747773_x_at) / Fold change /veh SPTSSB (11747773_x_at) / RFU PRSS12 (11739890_at) / Fold change /veh PRSS12 (11739890_at) / RFU BIN1 (11741810_x_at) / Fold change /veh BIN1 (11741810_x_at) / RFU WNT11 (11732464_a_at) / Fold change /veh WNT11 (11732464_a_at) / RFU C10orf10 (11716521_a_at) / Fold change /veh C10orf10 (11716521_a_at) / RFU C5orf56 (11738089_at) / Fold change /veh C5orf56 (11738089_at) / RFU CYB561 (11721691_x_at) / Fold change /veh CYB561 (11721691_x_at) / RFU ANKRD19P (11752326_a_at) / Fold change /veh ANKRD19P (11752326_a_at) / RFU OR2T12 /// OR2T33 /// OR2T8 (11738714_s_at) / Fold change /veh OR2T12 /// OR2T33 /// OR2T8 (11738714_s_at) / RFU VCAN (11748164_a_at) / Fold change /veh VCAN (11748164_a_at) / RFU JSRP1 (11732532_at) / Fold change /veh JSRP1 (11732532_at) / RFU KRTAP10-11 (11738290_x_at) / Fold change /veh KRTAP10-11 (11738290_x_at) / RFU MYO3A (11730013_a_at) / Fold change /veh MYO3A (11730013_a_at) / RFU EBF3 (11725865_a_at) / Fold change /veh EBF3 (11725865_a_at) / RFU CAMK2N1 (11719241_x_at) / Fold change /veh CAMK2N1 (11719241_x_at) / RFU C5orf56 (11738088_a_at) / Fold change /veh C5orf56 (11738088_a_at) / RFU OLFML3 (11715873_a_at) / Fold change /veh OLFML3 (11715873_a_at) / RFU LOC100653217 /// NTM (11731650_a_at) / Fold change /veh LOC100653217 /// NTM (11731650_a_at) / RFU MAPK11 (11762145_a_at) / Fold change /veh MAPK11 (11762145_a_at) / RFU FIZ1 (11724087_x_at) / Fold change /veh FIZ1 (11724087_x_at) / RFU OASL (11726364_x_at) / Fold change /veh OASL (11726364_x_at) / RFU SOX15 (11748057_x_at) / Fold change /veh SOX15 (11748057_x_at) / RFU CD79A (11719716_a_at) / Fold change /veh CD79A (11719716_a_at) / RFU HIST1H1D (11736915_at) / Fold change /veh HIST1H1D (11736915_at) / RFU CASKIN2 (11723855_a_at) / Fold change /veh CASKIN2 (11723855_a_at) / RFU LOC730098 (11760151_x_at) / Fold change /veh LOC730098 (11760151_x_at) / RFU OR4N2 (11742367_at) / Fold change /veh OR4N2 (11742367_at) / RFU PRRT2 (11749266_a_at) / Fold change /veh PRRT2 (11749266_a_at) / RFU SNX32 (11753110_a_at) / Fold change /veh SNX32 (11753110_a_at) / RFU CDHR5 (11726645_a_at) / Fold change /veh CDHR5 (11726645_a_at) / RFU RCAN1 (11760418_a_at) / Fold change /veh RCAN1 (11760418_a_at) / RFU FAM167A (11723789_a_at) / Fold change /veh FAM167A (11723789_a_at) / RFU FAM26E (11764081_at) / Fold change /veh FAM26E (11764081_at) / RFU ISYNA1 (11749810_s_at) / Fold change /veh ISYNA1 (11749810_s_at) / RFU ACY1 (11761880_at) / Fold change /veh ACY1 (11761880_at) / RFU 11764098_at / Fold change /veh 11764098_at / RFU SAMD14 (11745864_x_at) / Fold change /veh SAMD14 (11745864_x_at) / RFU NPB (11741838_a_at) / Fold change /veh NPB (11741838_a_at) / RFU TMPRSS6 (11731388_a_at) / Fold change /veh TMPRSS6 (11731388_a_at) / RFU KRTAP10-2 (11738614_at) / Fold change /veh KRTAP10-2 (11738614_at) / RFU ARHGAP8 /// PRR5-ARHGAP8 (11727945_x_at) / Fold change /veh ARHGAP8 /// PRR5-ARHGAP8 (11727945_x_at) / RFU KRTAP5-7 /// NADSYN1 (11734609_at) / Fold change /veh KRTAP5-7 /// NADSYN1 (11734609_at) / RFU RASL12 (11751679_a_at) / Fold change /veh RASL12 (11751679_a_at) / RFU CDKN2B (11736163_a_at) / Fold change /veh CDKN2B (11736163_a_at) / RFU PRF1 (11729649_at) / Fold change /veh PRF1 (11729649_at) / RFU, ZNF638 /// ZNF638-IT1 / Fold change vs veh, ZNF638 /// ZNF638-IT1 / RFU, PANK3 / Fold change vs veh, PANK3 / RFU, SH3YL1 / Fold change vs veh, SH3YL1 / RFU, ZEB2 / Fold change vs veh, ZEB2 / RFU, NRIP1 / Fold change vs veh, NRIP1 / RFU, PTTG1IP / Fold change vs veh, PTTG1IP / RFU, CAPN2 / Fold change vs veh, CAPN2 / RFU, MED14 / Fold change vs veh, MED14 / RFU, SNORA58 / Fold change vs veh, SNORA58 / RFU, C1orf63 / Fold change vs veh, C1orf63 / RFU, LRRFIP1 / Fold change vs veh, LRRFIP1 / RFU, NDUFAF7 / Fold change vs veh, NDUFAF7 / RFU, SLC12A2 / Fold change vs veh, SLC12A2 / RFU, IBTK / Fold change vs veh, IBTK / RFU, ESF1 / Fold change vs veh, ESF1 / Fold change vs veh, TMEM50B / RFU, TAOK1 / Fold change vs veh, TAOK1 / RFU, ACBD3 / Fold change vs veh, ACBD3 / RFU, TMA16 / Fold change vs veh, TMA16 / RFU, RWDD3 / Fold change vs veh, RWDD3 / RFU, BCAT1 / Fold change vs veh, BCAT1 / RFU, EDEM3 / Fold change vs veh, EDEM3 / RFU, TMEM33 / Fold change vs veh, TMEM33 / RFU, WDR75 / Fold change vs veh, WDR75 / RFU, AHCTF1 / Fold change vs veh, AHCTF1 / RFU, TFRC / Fold change vs veh, TFRC / RFU, ZDHHC17 / Fold change vs veh, ZDHHC17 / RFU, NOM1 / Fold change vs veh, NOM1 / RFU, ARL8B / Fold change vs veh, ARL8B / RFU, ZBTB11 / Fold change vs veh, ZBTB11 / RFU, TAMM41 / Fold change vs veh, TAMM41 / RFU, KIAA1704 /// LOC100996395 / Fold change vs veh, KIAA1704 /// LOC100996395 / RFU, ING1 / Fold change vs veh, ING1 / RFU, TRMT61B / Fold change vs veh, TRMT61B / RFU, FUBP3 / Fold change vs veh, FUBP3 / RFU, TP53 / Fold change vs veh, TP53 / RFU, TNKS2 / Fold change vs veh, TNKS2 / RFU, ZFP14 / Fold change vs veh, ZFP14 / RFU, ACTR2 / Fold change vs veh, ACTR2 / RFU, PPP3R1 / Fold change vs veh, PPP3R1 / RFU, PIK3R1 / Fold change vs veh, PIK3R1 / RFU, HNRNPA1 / Fold change vs veh, HNRNPA1 / RFU, RNF170 / Fold change vs veh, RNF170 / RFU, ZNF28 / Fold change vs veh, ZNF28 / RFU, RNGTT / Fold change vs veh, RNGTT / RFU, OGT / Fold change vs veh, OGT / RFU, BRD1 / Fold change vs veh, BRD1 / RFU, MARS / Fold change vs veh, MARS / RFU, ZNF655 / Fold change vs veh, ZNF655 / RFU, FAHD1 / Fold change vs veh, FAHD1 / RFU, BDP1 / Fold change vs veh, BDP1 / RFU, LRRCC1 / Fold change vs veh, LRRCC1 / RFU, ARID1A / Fold change vs veh, ARID1A / RFU, ZNF146 / Fold change vs veh, ZNF146 / RFU, ZNF330 / Fold change vs veh, ZNF330 / RFU, GPN3 / Fold change vs veh, GPN3 / RFU, C9orf123 / Fold change vs veh, C9orf123 / RFU, N4BP2L2 / Fold change vs veh, N4BP2L2 / RFU, ARFIP1 / Fold change vs veh, ARFIP1 / RFU, FAM179B / Fold change vs veh, FAM179B / RFU, BCL10 / Fold change vs veh, BCL10 / RFU, UHRF1BP1L / Fold change vs veh, UHRF1BP1L / RFU, BET1 / Fold change vs veh, BET1 / RFU, CNOT2 / Fold change vs veh, CNOT2 / RFU, ZNF268 / Fold change vs veh, ZNF268 / Fold change vs veh, ZNF507 / RFU, DGCR2 / Fold change vs veh, DGCR2 / RFU, WDSUB1 / Fold change vs veh, WDSUB1 / Fold change vs veh, HSP90B1 /// MIR3652 / RFU, ADSS / Fold change vs veh, ADSS / RFU, GK / Fold change vs veh, GK / RFU, ZNF148 / Fold change vs veh, ZNF148 / RFU, TAF9 / Fold change vs veh, TAF9 / RFU, SLC1A5 / Fold change vs veh, SLC1A5 / RFU, SLMO2 / Fold change vs veh, SLMO2 / RFU, ABCC4 / Fold change vs veh, ABCC4 / RFU, LOC101060439 /// RAP1B / Fold change vs veh, LOC101060439 /// RAP1B / RFU, RFX7 / Fold change vs veh, RFX7 / RFU, GTPBP10 / Fold change vs veh, GTPBP10 / RFU, CNEP1R1 / Fold change vs veh, CNEP1R1 / RFU, BIVM-ERCC5 /// ERCC5 / Fold change vs veh, BIVM-ERCC5 /// ERCC5 / RFU, ILF3 / Fold change vs veh, ILF3 / RFU 11762660_at / Fold change /veh 11762660_at / RFU VCAN (11757783_s_at) / Fold change /veh VCAN (11757783_s_at) / RFU DDX43 (11728927_at) / Fold change /veh DDX43 (11728927_at) / RFU KRT8 (11758188_x_at) / Fold change /veh KRT8 (11758188_x_at) / RFU NKD1 (11759106_at) / Fold change /veh NKD1 (11759106_at) / RFU SRD5A1 (11742802_a_at) / Fold change /veh SRD5A1 (11742802_a_at) / RFU TPSAB1 /// TPSB2 (11721975_s_at) / Fold change /veh TPSAB1 /// TPSB2 (11721975_s_at) / RFU GSTM3 (11746129_a_at) / Fold change /veh GSTM3 (11746129_a_at) / RFU IL23R (11737362_x_at) / Fold change /veh IL23R (11737362_x_at) / RFU TMEM51 (11727254_a_at) / Fold change /veh TMEM51 (11727254_a_at) / RFU PIWIL2 (11732686_x_at) / Fold change /veh PIWIL2 (11732686_x_at) / RFU ORM1 (11744905_x_at) / Fold change /veh ORM1 (11744905_x_at) / RFU CCDC152 (11743942_at) / Fold change /veh CCDC152 (11743942_at) / RFU ECM1 (11717891_a_at) / Fold change /veh ECM1 (11717891_a_at) / RFU IL23R (11748794_a_at) / Fold change /veh IL23R (11748794_a_at) / RFU TNFAIP8L3 (11732012_x_at) / Fold change /veh TNFAIP8L3 (11732012_x_at) / RFU MBOAT4 (11741988_at) / Fold change /veh MBOAT4 (11741988_at) / RFU 11764193_at / Fold change /veh 11764193_at / RFU TMEM53 (11763286_at) / Fold change /veh TMEM53 (11763286_at) / RFU MAGEB2 (11727129_at) / Fold change /veh MAGEB2 (11727129_at) / RFU TMEM200A (11744735_a_at) / Fold change /veh TMEM200A (11744735_a_at) / RFU CCDC152 (11751479_a_at) / Fold change /veh CCDC152 (11751479_a_at) / RFU FAM211A (11726209_a_at) / Fold change /veh FAM211A (11726209_a_at) / RFU RGS16 (11746705_a_at) / Fold change /veh RGS16 (11746705_a_at) / RFU VCAN (11755009_s_at) / Fold change /veh VCAN (11755009_s_at) / RFU RHOB (11743442_s_at) / Fold change /veh RHOB (11743442_s_at) / RFU RGS16 (11720943_a_at) / Fold change /veh RGS16 (11720943_a_at) / RFU RGS16 (11720944_at) / Fold change /veh RGS16 (11720944_at) / RFU, VPS4B / Fold change vs veh, VPS4B / RFU, CREB1 / Fold change vs veh, CREB1 / RFU, DNAJC13 / Fold change vs veh, DNAJC13 / RFU, GNAQ / Fold change vs veh, GNAQ / RFU, CDK5R1 / Fold change vs veh, CDK5R1 / RFU, ZRANB3 / Fold change vs veh, ZRANB3 / RFU, CUL4A / Fold change vs veh, CUL4A / RFU, CCNY / Fold change vs veh, CCNY / RFU, UFL1 / Fold change vs veh, UFL1 / RFU, COG3 / Fold change vs veh, COG3 / RFU, DIAPH2 / Fold change vs veh, DIAPH2 / RFU, SKA2 / Fold change vs veh, SKA2 / RFU, AFF3 / Fold change vs veh, AFF3 / RFU, LMF1 / Fold change vs veh, LMF1 / RFU, IPO11 / Fold change vs veh, IPO11 / RFU, DFFB / Fold change vs veh, DFFB / RFU, FOXP1 / Fold change vs veh, FOXP1 / RFU, CARD8 / Fold change vs veh, CARD8 / RFU, STRN3 / Fold change vs veh, STRN3 / RFU, ADK / Fold change vs veh, ADK / RFU, RASSF2 / Fold change vs veh, RASSF2 / RFU, WIPF1 / Fold change vs veh, WIPF1 / RFU, LARP1B / Fold change vs veh, LARP1B / RFU, RASA1 / Fold change vs veh, RASA1 / RFU, RB1 / Fold change vs veh, RB1 / RFU, PPFIA1 / Fold change vs veh, PPFIA1 / RFU, MAT2A / Fold change vs veh, MAT2A / RFU, CCT5 / Fold change vs veh, CCT5 / RFU, WDR92 / Fold change vs veh, WDR92 / RFU, CUX1 / Fold change vs veh, CUX1 / RFU, TTC7A / Fold change vs veh, TTC7A / RFU, TMEM135 / Fold change vs veh, TMEM135 / RFU, DEPTOR / Fold change vs veh, DEPTOR / RFU, CPM / Fold change vs veh, CPM / RFU, DNAJB6 / Fold change vs veh, DNAJB6 / RFU, CACNA2D3 / Fold change vs veh, CACNA2D3 / RFU, DTX4 / Fold change vs veh, DTX4 / RFU, TFCP2 / Fold change vs veh, TFCP2 / RFU, GMCL1 /// GMCL1P1 / Fold change vs veh, GMCL1 /// GMCL1P1 / RFU, AEBP2 / Fold change vs veh, AEBP2 / RFU, SNHG1 /// SNORD22 /// SNORD25 /// SNORD26 /// SNORD27 /// SNORD28 /// SNORD29 /// SNORD31 / Fold change vs veh, SNHG1 /// SNORD22 /// SNORD25 /// SNORD26 /// SNORD27 /// SNORD28 /// SNORD29 /// SNORD31 / Fold change (Aza/veh), C12orf56 (ProbeSet 11735607_a_at) / Fold change (ACY-1035/veh), C12orf56 (ProbeSet 11735607_a_at) / Fold change (Aza/veh), FGFR1OP (ProbeSet 11751329_s_at) / Fold change (ACY-1035/veh), FGFR1OP (ProbeSet 11751329_s_at) / Fold change (Aza/veh), VPS36 (ProbeSet 11739960_a_at) / Fold change (ACY-1035/veh), VPS36 (ProbeSet 11739960_a_at) / RFU SYPL1 (11715823_x_at) / Fold change /veh SYPL1 (11715823_x_at) / RFU IGFBP7 (11715501_s_at) / Fold change /veh IGFBP7 (11715501_s_at) / RFU REEP3 (11722064_at) / Fold change /veh REEP3 (11722064_at) / RFU IGLL1 (11728026_x_at) / Fold change /veh IGLL1 (11728026_x_at): dose or concentration left out as unconfirmed. The following applies: MV-4-11 cells, 48 hours. The experiment is classed as cell-based, human.

In the case of `Nc1ncn([C@@H]2O[C@H](CO)[C@@H](O)[C@H]2O)c(=O)n1` [azacitidine], the “RFU VCAN (11748164_a_at)” value was 5.82 RFU.

Values taken from article PMC5218480 (PLoS ONE, 2017).
